Assay results reported in patent US10526316B2, “Quinoxaline and pyridopyrazine derivatives as PI3Kβ inhibitors” (Janssen Pharmaceutica NV, priority 2015, dated 2020).
Read-outs that look alike come from different tables or passages of the source.

Tests used:
PI3Kβ = molecular target: T1, PI3Kβ (Homo sapiens, UniProt P42338); test: Enzyme binding assay (KINOMEscan, DiscoveRx); conditions: PIK3Cβ_h, read-out: Kd PIK3Cβ_h
T1 construct: purchased DiscoveRx Corporation, San Diego (contract service, KINOMEscan)
T1 sequence (P42338 whole entry): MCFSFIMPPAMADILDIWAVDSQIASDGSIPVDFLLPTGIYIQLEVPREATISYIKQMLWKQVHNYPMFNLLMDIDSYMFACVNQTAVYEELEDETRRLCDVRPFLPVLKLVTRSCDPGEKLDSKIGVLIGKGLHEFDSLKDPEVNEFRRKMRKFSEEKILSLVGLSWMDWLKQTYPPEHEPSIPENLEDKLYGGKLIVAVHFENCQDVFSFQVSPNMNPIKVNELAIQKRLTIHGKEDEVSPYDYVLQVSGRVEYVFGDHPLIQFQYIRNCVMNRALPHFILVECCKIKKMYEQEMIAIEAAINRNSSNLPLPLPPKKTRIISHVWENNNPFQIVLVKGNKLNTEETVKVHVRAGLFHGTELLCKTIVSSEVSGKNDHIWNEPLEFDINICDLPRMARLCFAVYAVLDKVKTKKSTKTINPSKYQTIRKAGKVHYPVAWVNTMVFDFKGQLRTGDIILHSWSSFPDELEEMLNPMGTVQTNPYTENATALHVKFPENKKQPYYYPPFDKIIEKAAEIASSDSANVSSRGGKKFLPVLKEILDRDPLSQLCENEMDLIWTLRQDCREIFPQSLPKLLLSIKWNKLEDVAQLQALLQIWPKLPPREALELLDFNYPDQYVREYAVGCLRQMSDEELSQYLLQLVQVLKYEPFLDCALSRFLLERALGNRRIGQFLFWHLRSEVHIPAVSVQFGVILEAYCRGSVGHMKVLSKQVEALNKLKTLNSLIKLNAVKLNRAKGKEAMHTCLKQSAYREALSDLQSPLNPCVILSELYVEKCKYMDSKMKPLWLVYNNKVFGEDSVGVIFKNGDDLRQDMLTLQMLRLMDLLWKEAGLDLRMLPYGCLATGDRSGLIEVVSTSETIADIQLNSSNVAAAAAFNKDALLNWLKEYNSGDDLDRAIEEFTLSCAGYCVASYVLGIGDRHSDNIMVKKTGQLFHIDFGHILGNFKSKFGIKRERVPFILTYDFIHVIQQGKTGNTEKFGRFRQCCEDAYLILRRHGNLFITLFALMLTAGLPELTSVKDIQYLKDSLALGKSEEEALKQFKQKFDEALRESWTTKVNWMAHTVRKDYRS
Procedure, shortened: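 Values are Kd in nM, the binding constant of each inhibitor for the kinase, obtained from a KINOMEscan enzyme binding assay.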

PI3Kδ = molecular target: T2, PI3Kδ (Homo sapiens, UniProt O00329); test: Enzyme binding assay (KINOMEscan, DiscoveRx); conditions: PIK3Cδ_h
T2 construct: purchased DiscoveRx Corporation, San Diego (contract service, KINOMEscan)
T2 sequence (O00329 1-1044): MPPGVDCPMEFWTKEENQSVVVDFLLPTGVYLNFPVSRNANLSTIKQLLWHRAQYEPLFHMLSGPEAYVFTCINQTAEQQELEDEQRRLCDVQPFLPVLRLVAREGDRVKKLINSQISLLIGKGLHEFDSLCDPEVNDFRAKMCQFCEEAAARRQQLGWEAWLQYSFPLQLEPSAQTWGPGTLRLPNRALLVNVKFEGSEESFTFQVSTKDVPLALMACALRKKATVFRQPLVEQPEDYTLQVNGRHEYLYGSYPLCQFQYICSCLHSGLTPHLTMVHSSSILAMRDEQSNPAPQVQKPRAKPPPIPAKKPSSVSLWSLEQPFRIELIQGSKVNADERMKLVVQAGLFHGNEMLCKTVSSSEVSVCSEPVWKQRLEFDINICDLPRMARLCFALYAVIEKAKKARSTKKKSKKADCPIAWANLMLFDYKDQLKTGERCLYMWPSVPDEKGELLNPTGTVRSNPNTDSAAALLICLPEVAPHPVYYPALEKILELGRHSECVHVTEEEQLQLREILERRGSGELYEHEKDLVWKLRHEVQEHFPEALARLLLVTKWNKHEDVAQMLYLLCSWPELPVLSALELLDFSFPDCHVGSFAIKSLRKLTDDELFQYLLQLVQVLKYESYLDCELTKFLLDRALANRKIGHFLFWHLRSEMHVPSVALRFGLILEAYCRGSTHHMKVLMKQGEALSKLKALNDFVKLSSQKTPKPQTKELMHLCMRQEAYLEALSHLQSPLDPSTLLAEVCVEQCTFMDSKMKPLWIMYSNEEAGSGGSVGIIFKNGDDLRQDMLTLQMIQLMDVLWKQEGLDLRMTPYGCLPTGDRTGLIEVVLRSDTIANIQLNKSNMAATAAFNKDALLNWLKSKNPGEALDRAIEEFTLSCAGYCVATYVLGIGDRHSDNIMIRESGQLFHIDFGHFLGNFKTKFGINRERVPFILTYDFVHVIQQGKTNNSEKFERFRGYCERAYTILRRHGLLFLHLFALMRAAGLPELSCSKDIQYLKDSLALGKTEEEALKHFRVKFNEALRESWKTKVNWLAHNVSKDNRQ
Procedure, shortened: (§1)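 Affinity for each kinase was determined by KINOMEscan profiling.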

[1] = system: Akt phosphorylated at Ser473 in PC-3 cells; test: Cellular assay: phosphorylation of Akt at Ser473 in PC-3 cells (MSD ELISA); type: cell-based; conditions: PC-3 cells, 60 min compound incubation, MSD ELISA, read-out: IC50 pAkt_S473
Procedure, shortened: (§2)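 Electrochemiluminescent sandwich ELISA read-out: phospho-specific capture (Ser473 or Thr308), Sulfo-tag anti-total Akt detection, signal proportional to phospho-Akt. Cells treated 60 min at 37° C with compound, DMSO 0.3%. IC50 fitted from five concentrations.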

[2] = system: Akt phosphorylated at Thr308 in PC-3 cells; test: Cellular assay: phosphorylation of Akt at Thr308 in PC-3 cells (MSD ELISA); type: cell-based; conditions: PC-3 cells, 60 min compound incubation, MSD ELISA, read-out: IC50 pAkt_Thr308
Procedure, shortened: as §2

kinase enzymes [3] = molecular target: T3, kinase enzymes (Homo sapiens, UniProt P48736); test: Enzyme binding assay (KINOMEscan, DiscoveRx), further kinases of Table A; conditions: PIK3Cγ_h
T3 construct: purchased DiscoveRx Corporation, San Diego (contract service, KINOMEscan)
T3 sequence (P48736 whole entry): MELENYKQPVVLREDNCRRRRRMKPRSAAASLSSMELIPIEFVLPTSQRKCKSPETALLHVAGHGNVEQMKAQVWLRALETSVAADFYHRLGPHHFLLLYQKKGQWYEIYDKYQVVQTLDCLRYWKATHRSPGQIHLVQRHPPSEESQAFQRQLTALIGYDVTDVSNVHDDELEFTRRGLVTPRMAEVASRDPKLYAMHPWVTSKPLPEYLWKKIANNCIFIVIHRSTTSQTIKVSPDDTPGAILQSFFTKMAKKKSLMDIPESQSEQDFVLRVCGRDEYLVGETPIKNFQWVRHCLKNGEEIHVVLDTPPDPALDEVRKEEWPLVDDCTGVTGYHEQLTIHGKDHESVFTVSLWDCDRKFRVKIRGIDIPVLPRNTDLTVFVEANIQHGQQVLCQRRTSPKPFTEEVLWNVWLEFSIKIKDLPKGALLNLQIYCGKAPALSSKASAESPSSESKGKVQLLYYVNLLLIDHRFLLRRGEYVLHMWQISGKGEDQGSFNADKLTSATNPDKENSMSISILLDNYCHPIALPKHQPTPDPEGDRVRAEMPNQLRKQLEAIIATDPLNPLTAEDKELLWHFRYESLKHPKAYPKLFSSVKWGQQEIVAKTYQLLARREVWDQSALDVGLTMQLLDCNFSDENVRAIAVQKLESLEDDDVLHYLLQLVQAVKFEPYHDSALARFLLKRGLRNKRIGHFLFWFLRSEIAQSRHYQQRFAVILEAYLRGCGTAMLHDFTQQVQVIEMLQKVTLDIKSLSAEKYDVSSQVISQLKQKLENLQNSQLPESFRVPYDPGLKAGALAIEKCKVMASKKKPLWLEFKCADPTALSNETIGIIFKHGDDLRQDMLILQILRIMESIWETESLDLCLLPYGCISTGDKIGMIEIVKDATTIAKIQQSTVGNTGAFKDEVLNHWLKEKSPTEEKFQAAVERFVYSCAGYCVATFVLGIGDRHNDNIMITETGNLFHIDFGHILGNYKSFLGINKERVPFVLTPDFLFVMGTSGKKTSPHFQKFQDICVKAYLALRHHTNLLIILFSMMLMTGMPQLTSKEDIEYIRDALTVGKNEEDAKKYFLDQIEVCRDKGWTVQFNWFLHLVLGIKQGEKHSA
Procedure, shortened: as §1

kinase enzymes [4] = molecular target: T4, kinase enzymes (Homo sapiens, UniProt P42336); test: as above; conditions: PIK3Cα_h
T4 construct: purchased DiscoveRx Corporation, San Diego (contract service, KINOMEscan)
T4 sequence (P42336 whole entry): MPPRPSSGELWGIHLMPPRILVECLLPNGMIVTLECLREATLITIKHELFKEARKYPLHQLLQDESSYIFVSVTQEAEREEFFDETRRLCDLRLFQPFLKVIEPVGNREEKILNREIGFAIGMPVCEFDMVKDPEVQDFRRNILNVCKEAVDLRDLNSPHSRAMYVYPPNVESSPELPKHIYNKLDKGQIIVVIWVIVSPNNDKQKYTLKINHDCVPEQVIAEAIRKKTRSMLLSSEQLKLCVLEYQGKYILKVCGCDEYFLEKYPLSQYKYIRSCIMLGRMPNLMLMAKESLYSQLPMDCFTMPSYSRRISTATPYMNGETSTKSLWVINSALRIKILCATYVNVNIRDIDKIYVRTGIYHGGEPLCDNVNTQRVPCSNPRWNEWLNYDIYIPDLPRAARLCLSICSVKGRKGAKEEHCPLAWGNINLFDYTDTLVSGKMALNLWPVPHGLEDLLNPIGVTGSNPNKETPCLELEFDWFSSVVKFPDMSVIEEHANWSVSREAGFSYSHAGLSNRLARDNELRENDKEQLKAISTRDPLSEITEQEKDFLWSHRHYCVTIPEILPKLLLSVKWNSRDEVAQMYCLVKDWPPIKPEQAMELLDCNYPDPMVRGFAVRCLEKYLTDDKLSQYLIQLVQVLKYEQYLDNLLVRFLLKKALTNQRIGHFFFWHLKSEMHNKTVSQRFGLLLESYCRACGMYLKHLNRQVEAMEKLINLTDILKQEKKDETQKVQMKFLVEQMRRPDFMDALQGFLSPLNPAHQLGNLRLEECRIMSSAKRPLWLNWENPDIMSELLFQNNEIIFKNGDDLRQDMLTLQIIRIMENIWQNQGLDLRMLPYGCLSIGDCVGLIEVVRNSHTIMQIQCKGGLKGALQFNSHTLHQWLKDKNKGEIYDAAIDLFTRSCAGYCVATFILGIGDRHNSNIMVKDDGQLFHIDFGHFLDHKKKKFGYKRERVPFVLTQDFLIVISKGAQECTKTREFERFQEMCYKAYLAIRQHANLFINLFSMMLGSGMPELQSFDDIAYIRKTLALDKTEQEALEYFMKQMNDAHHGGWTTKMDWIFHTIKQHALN
Procedure, shortened: as §1

kinase enzymes [5] = molecular target: T5, kinase enzymes (Homo sapiens, UniProt P42345); test: as above; conditions: MTOR_h
T5 construct: purchased DiscoveRx Corporation, San Diego (contract service, KINOMEscan)
Procedure, shortened: as §1

Row | Kd (PI3Kβ) | Kd (PI3Kδ) | IC50 ([1]; Homo sapiens, PC-3, 1 h) | melting point | IC50 ([2]; Homo sapiens, PC-3, 1 h) | Kd (kinase enzymes [3]) | Kd (kinase enzymes [4]) | Kd (kinase enzymes [5]) | IC50 [1] | IC50 [2] | Structure (SMILES)
1 | 2 nM | 182 nM | 20 nM | 110 °C | 17 nM | 4470 nM | 513 nM | > 30200 nM |  |  | CC(Nc1cccc(F)c1)c1cc(C(=O)N2CCC[C@H](O)C2)cc2ncc(N3CCOCC3)nc12 (single isomer, unassigned) [Compound 320a]
2 | 1410 nM | 10700 nM | > 513 nM | 80 °C | > 513 nM | 25100 nM | 3630 nM | 15500 nM |  |  | CN(C)C(=O)c1cc(N2CCC2c2ccc(F)cc2)c2nc(N3CCOCC3)cnc2c1 (single isomer, unassigned) [Compound 397a]
3 | 7080 nM | > 30200 nM |  | 80 °C |  | > 30200 nM | > 30200 nM | > 30200 nM | > 513 nM | > 513 nM | CC(Nc1cc(F)cc(F)c1)c1cc(CN2C[C@@H](C)O[C@@H](C)C2)cc2ncc(N3CCOCC3)nc12 (single isomer, unassigned) [Compound 206]
4 | 316 nM | 11500 nM | > 513 nM | 183 °C | > 513 nM | 17000 nM | > 30200 nM | > 30200 nM |  |  | COC(=O)c1cc(C(C)Oc2ccc(F)c(F)c2)c2nc(N3CCOCC3)cnc2c1 (centres unmarked) [Compound 209]
5 | 4 nM | 955 nM |  | 211 °C |  | 2400 nM | 794 nM | > 30200 nM | 71 nM | 52 nM | COC(=O)c1cc(C2CCCN2c2cc(F)cc(F)c2)c2nc(N3CCOCC3)cnc2c1 (single isomer, unassigned) [Compound 249]
6 | 2 nM | 282 nM |  | 80 °C |  | 14800 nM | 4370 nM | > 30200 nM | 79 nM | 28 nM | CNCCOCCN(C)C(=O)c1cc(C(C)Nc2ccc(F)c(F)c2)c2nc(N3CCOCC3)cnc2c1 (single isomer, unassigned) [Compound 345a]
7 | 8 nM | 1120 nM | 200 nM | 217 °C | 102 nM | 5370 nM | 4070 nM | 18600 nM |  |  | CC(Nc1cc(F)cc(F)c1)c1cc(C(=O)NC(C)(C)CO)cc2ncc(N3CCOCC3)nc12 (centres unmarked) [Compound 169]
8 | 1200 nM | 26300 nM |  | 80 °C |  | > 30200 nM | > 30200 nM | > 30200 nM | > 513 nM | > 513 nM | CNCCOCCN(C)C(=O)c1cc(C(C)Nc2cc(F)cc(F)c2)c2nc(N3CCOCC3)cnc2c1 (single isomer, unassigned) [Compound 174]
9 | 18 nM | 617 nM | 195 nM | 80 °C | 166 nM | 20900 nM | 2460 nM | > 30200 nM |  |  | C[C@H](CO)NCc1ccc(F)cc1N1CCCC1c1cc(C(=O)N(C)C)cc2ncc(N3CCOCC3)nc12 (mixture of isomers) [Compound 67]
10 | 8 nM | 871 nM | 302 nM | 161 °C | 138 nM | 28200 nM | 3890 nM | > 30200 nM |  |  | CC(c1cc(C(=O)N2CCOCC2)cc2ncc(N3CCOCC3)nc12)N(C)c1cccc(F)c1 (centres unmarked) [Compound 105]
11 | 1 nM | 39 nM | 3 nM | 80 °C | 3 nM | 339 nM | 55 nM | > 30200 nM |  |  | CON(C)C(=O)c1cc(C2CCCN2c2cc(F)cc(F)c2)c2nc(N3CCOCC3)cnc2c1 (centres unmarked) [Compound 51]
12 | 1 nM | 295 nM | 105 nM | 130 °C | 85 nM | 5130 nM | 4270 nM | > 30200 nM |  |  | CC(Nc1ccc(F)c(F)c1)c1cc(C(=O)NC[C@H]2CCCN2)cc2ncc(N3CCOCC3)nc12 (some centres unmarked) [Compound 376]
13 | 17 nM | 1860 nM | 214 nM | 165 °C | 112 nM | > 30200 nM | 3630 nM | > 30200 nM |  |  | CC(Nc1cc(F)cc(F)c1)c1cc(CN2CCOCC2)cc2ncc(N3CCOCC3)nc12 (centres unmarked) [Compound 168]
14 | 0.2 nM | 36 nM |  | 82 °C |  | 4270 nM | 813 nM | > 30200 nM | 4 nM | 2 nM | CC(Nc1ccc(F)c(F)c1)c1cc(C(=O)N(C)CCN(C)C)cc2ncc(N3CCOCC3)nc12 (single isomer, unassigned) [Compound 349a]
15 | 0.5 nM | 135 nM | 89 nM | 159 °C | 65 nM | 240 nM | 363 nM | 6170 nM |  |  | CNCCNC(=O)c1cc(C(C)N(C)c2cccc(F)c2)c2nc(N3CCOCC3)cnc2c1 (centres unmarked) [Compound 130]
16 | 19500 nM | > 30200 nM | > 513 nM | 120 °C | > 513 nM | 4570 nM | > 30200 nM | > 30200 nM |  |  | Cc1ccc(NC(C)c2cc(C(=O)NCCO)cc3ncc(N4CCOCC4)nc23)cc1F (single isomer, unassigned) [Compound 295b]
17 | 13 nM | 2880 nM | > 513 nM | 80 °C | 437 nM | 20900 nM | 4790 nM | 13200 nM |  |  | CN(C(=O)c1cc(NCc2cc(F)cc(F)c2)c2nc(N3CCOCC3)cnc2c1)[C@@H]1CCNC1 [Compound 355]
18 | 0.5 nM | 69 nM | > 513 nM | 160 °C | > 513 nM | 100 nM | 39 nM | 1480 nM |  |  | CC(Nc1cc(F)cc(F)c1)c1cc(C(=O)NS(N)(=O)=O)cc2ncc(N3CCOCC3)nc12 (single isomer, unassigned) [Compound 243a]
19 | 33 nM | 2240 nM | > 513 nM | 80 °C | > 513 nM | 14100 nM | 3470 nM | 18200 nM |  |  | CN(C)C(=O)c1cc(N2CCCC2c2cc(F)cc(F)c2)c2nc(N3CCOCC3)cnc2c1 (centres unmarked) [Compound 395]
20 | 0.2 nM | 8 nM | 1 nM | 80 °C | 1 nM | 87 nM | 11 nM | 8910 nM |  |  | CN(CCO)C(=O)c1cc(C2CCCN2c2cc(F)cc(F)c2)c2nc(N3CCOCC3)cnc2c1 (centres unmarked) [Compound 50]
21 | 13 nM | 2630 nM | > 513 nM | 55 °C | 148 nM | > 30200 nM | 6610 nM | > 30200 nM |  |  | CC(Oc1cc(F)cc(F)c1)c1cc(C(=O)N2CCOCC2)cc2ncc(N3CCO[C@H](C)C3)nc12 (mixture of isomers) [Compound 56]
22 | 0.1 nM | 19 nM | 7 nM | 90 °C | 7 nM | 251 nM | 50 nM | > 30200 nM |  |  | OC1CN(Cc2cc(C3CCCN3c3cc(F)cc(F)c3)c3nc(N4CCOCC4)cnc3c2)C1 (centres unmarked) [Compound 76]
